In PubChem BioAssay (NCI):
“And” between values parts separate entries of the source, which are not always exact repeats. Equal values may be shown once.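 Values below derive from 48-hour exposures of cells grown in 96-well plates, with endpoints linearly interpolated between the two concentrations bracketing the appropriate inhibition level. Definition used: TGI = concentration required for complete inhibition of growth.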

Tests used:
Assay in all cases: NCI-60 cell line screen, 48 h
MDA-MB-435 = system: MDA-MB-435
CAKI-1 renal = system: CAKI-1 renal
BT-549 breast = system: BT-549 breast
HCT-15 colon = system: HCT-15 colon
IGROV1 ovarian = system: IGROV1 ovarian
A549 NSCLC = system: A549 NSCLC
DU-145 prostate = system: DU-145 prostate
HCC-2998 colon = system: HCC-2998 colon
T-47D breast = system: T-47D breast
LOX IMVI melanoma = system: LOX IMVI melanoma
RXF 393 renal = system: RXF 393 renal

SMILES	TGI (MDA-MB-435)	TGI (CAKI-1 renal)	TGI (BT-549 breast)	TGI (HCT-15 colon)	TGI (IGROV1 ovarian)	TGI (A549 NSCLC)	TGI (DU-145 prostate)	TGI (HCC-2998 colon)	TGI (T-47D breast)	TGI (LOX IMVI melanoma)	TGI (RXF 393 renal)
OCC1=C[C@@](COCc2ccccc2)(OCc2ccccc2)[C@@H](OCc2ccccc2)[C@@H]1OCc1ccccc1	27.4 µM	45.1 µM	98.1 µM	57.8 µM	38.5 µM	67.3 µM	> 100 µM	32.3 µM	82.8 µM	21.9 µM	18.4 µM
CC(CN(C)C)C(O)(c1ccccc1)c1ccccc1 (configuration not stated)	> 100 µM	> 100 µM	> 100 µM	> 100 µM	> 100 µM	> 100 µM	> 100 µM	93.2 µM	> 100 µM	> 100 µM	> 100 µM
Cc1nc(-c2ccc(Cl)cc2)cn2c1nc1ccccc12	> 100 µM	> 100 µM	> 100 µM	> 100 µM	> 100 µM	> 100 µM	> 100 µM	> 100 µM	> 21.4 µM	> 100 µM	> 100 µM
CNc1ccc([N+](=O)[O-])cc1C(=O)N1CCC[C@H]1CO	> 100 µM	> 100 µM	> 100 µM	> 100 µM	> 100 µM	> 100 µM	> 100 µM	> 100 µM	> 100 µM	> 100 µM	> 100 µM
C[C@@H](CC(O)C(O)C(C)(C)O)C1CCC23CC12CCC1[C@@]2(C)CCC(=O)C(C)(C)C2CC(OC2OC(CO)C(O)C(O)C2O)[C@]13C (some centres not stated)	> 10 µM	> 10 µM	> 10 µM	> 10 µM	> 10 µM	> 10 µM	> 10 µM	> 10 µM	> 10 µM	> 10 µM	> 10 µM
COc1ccc(/C=C(\C#N)c2nc(-c3cc4ccccc4oc3=O)cs2)cc1	> 100 µM	> 100 µM	30.3 µM	> 100 µM	62.2 µM	> 100 µM	> 100 µM	> 100 µM	> 100 µM	> 100 µM	45.4 µM
C=CC(=O)N1C/C(=C\c2ccc(F)cc2)C(=O)/C(=C/c2ccc(F)cc2)C1	1.29 µM	1.7 µM	1.2 µM	0.433 µM	1.38 µM	4.47 µM	13.5 µM	1.15 µM	39.7 µM	0.415 µM	0.556 µM
NC(Cc1ccccc1)C(=O)O (configuration not stated)	> 100 µM	> 100 µM	> 100 µM	> 100 µM	> 100 µM	> 100 µM	> 100 µM	> 100 µM	> 100 µM	> 100 µM	> 100 µM
COc1cc2c(cc1OCc1ccccc1)NC(=O)[C@@H]1C[C@@H](O)CN1C2=O	> 100 µM	> 100 µM	> 100 µM	> 100 µM	> 100 µM	> 100 µM	> 100 µM	> 100 µM	> 100 µM	> 100 µM	> 100 µM
CCSc1nn(-c2c3ccccc3nc3ccccc23)c(=S)s1	> 100 µM	> 100 µM	> 100 µM	> 100 µM	> 100 µM	> 100 µM	> 100 µM	> 100 µM	> 100 µM	> 100 µM	> 100 µM
Oc1cc(Br)cc2cc(Br)cnc12	> 100 µM	42.6 µM	> 100 µM	> 100 µM	12.6 µM	> 100 µM	60.8 µM	57.3 µM	8.41 µM	> 100 µM	10.9 µM
Nc1ncnc2c(C3OC(CO)C(O)C3O)c[nH]c12 (configuration not stated)	0.182 µM and 0.125 µM	0.402 µM	0.237 µM and 0.297 µM	0.333 µM and 0.3 µM	0.0637 µM and 0.0661 µM	0.0775 µM and 0.434 µM	0.113 µM	0.247 µM and 0.343 µM	0.0758 µM and 0.0275 µM	0.0274 µM and < 0.0155 µM	0.126 µM and 0.0746 µM
C[N+](C)(C)c1nc(N)nc2c1ncn2C1OC(CO)C(O)C1O (configuration not stated)	> 100 µM	> 100 µM	> 100 µM	> 100 µM	> 100 µM	> 100 µM	> 100 µM	> 100 µM	> 100 µM	> 100 µM	> 100 µM
Cc1ccc2c3ccc4c(c3n(C)c2c1)C(=O)C=CC4=O	> 10 µM	> 10 µM	> 7.22 µM	> 10 µM	> 10 µM	> 10 µM	> 10 µM	> 10 µM	5.92 µM	> 10 µM	> 7.63 µM
COC(=O)[C@]12CCC(=O)N1[C@H](C(=O)O)Cc1c2[nH]c2ccccc12	> 100 µM	> 100 µM	> 100 µM	> 100 µM	> 100 µM	> 100 µM	> 100 µM	> 100 µM	> 100 µM	> 100 µM	> 100 µM
O=[N+]([O-])c1ccc(-c2nc3ccccc3o2)cc1	> 100 µM	> 100 µM	> 100 µM	> 100 µM	> 100 µM	> 100 µM	> 100 µM	> 100 µM	> 100 µM	> 100 µM	> 100 µM
Cc1nc2ccccc2n1CCc1nc2ccccc2[nH]1	> 100 µM	> 100 µM	> 100 µM	> 100 µM	> 100 µM	> 100 µM	> 100 µM	> 100 µM	> 100 µM	> 100 µM	> 100 µM
